According to US20160122386A1, “V1A RECEPTOR AGONISTS” (FERRING B.V., priority 2014, published 2016):
pEC50: −log10 of the molar value. Starred links: 1 amine or outer side, 2 acyl side, 3 side chain; linkers in the order of their positions; H or OH if unused. Positions of bridges follow the written chain, without caps; N, C: chain ends. Non-standard residues stand in square brackets, D forms with d. Residues, ends and D or L forms follow the SMILES beside them. Chains are numbered I, II in the order given. *: point of attachment. d(isoGln) = NC(=O)[C@@H](CCC(=O)[*:2])N[*:1]; isoGln = NC(=O)[C@H](CCC(=O)[*:2])N[*:1]; d(εLys) = N[C@H](CCCCN[*:1])C(=O)[*:2]; εLys = N[C@@H](CCCCN[*:1])C(=O)[*:2]; Aad = N[C@@H](CCCC(=O)O)C(=O)O; Cit = NC(=O)NCCC[C@H](N)C(=O)O; Heptanoyl = CCCCCCC(=O)*; Dab = NCC[C@H](N)C(=O)O; PhAc = O=C(Cc1ccccc1)*

Target: T1, human V1aR (Homo sapiens, UniProt P37288)
T1 construct: expressed in transfected cells
Test: Agonist activity at vasopressin V1a receptors, cell-based FLIPR calcium assay
Settings: for Emax: read-out: Efficacy Avg. (%)
In short: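 HEK Flp-In cells stably expressing human V1aR were loaded with Calcium 4 dye plus 2.5 mM probenecid for 1 h at 37 °C, then given half-log compound concentrations (final 0.1% DMSO) on FLIPR Tetra.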

T1 sequence (P37288 whole entry): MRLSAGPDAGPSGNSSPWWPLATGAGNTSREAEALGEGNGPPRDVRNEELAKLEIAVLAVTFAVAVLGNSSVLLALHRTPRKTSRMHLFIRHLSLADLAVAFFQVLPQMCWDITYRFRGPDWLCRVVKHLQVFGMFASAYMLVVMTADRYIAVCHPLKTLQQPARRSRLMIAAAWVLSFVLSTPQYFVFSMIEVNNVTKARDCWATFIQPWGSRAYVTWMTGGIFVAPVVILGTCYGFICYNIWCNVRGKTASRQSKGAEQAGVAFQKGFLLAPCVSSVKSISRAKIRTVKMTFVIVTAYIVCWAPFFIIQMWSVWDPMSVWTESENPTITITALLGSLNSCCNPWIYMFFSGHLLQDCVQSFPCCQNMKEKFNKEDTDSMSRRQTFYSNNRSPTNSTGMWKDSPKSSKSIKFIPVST

| SMILES | pEC50 | Emax |
| --- | --- | --- |
| CCCCCCC(=O)NCCCC[C@H](NC(=O)CC[C@H](NC(=O)[C@H](CCCNC(=N)N)NC(=O)[C@@H]1CCCN1C(=O)[C@H](C)NC(=O)[C@H](CC(N)=O)NC(=O)[C@H](CCC(N)=O)NC(=O)[C@H](Cc1ccccc1)NC(=O)[C@@H](Cc1ccc(OC)cc1)NC(=O)Cc1ccccc1)C(N)=O)C(=O)NCCCC[C@H](N)C(=O)NCC[C@H](NC(=O)[C@@H]1CCCN1C(=O)[C@@H]1CSSC[C@H](N)C(=O)N[C@@H](Cc2ccccc2)C(=O)N[C@@H]([C@@H](C)CC)C(=O)N[C@@H](CCC(N)=O)C(=O)N[C@@H](CC(N)=O)C(=O)N1)C(=O)NCC(N)=O [Compound 43] (I: H-CFIQNCP[Dab]G-NH2 / II: PhAc-[dY](Me)FQNAPR[isoGln]K(Heptanoyl)[εLys]; disulfide I:1-I:6; amide I:8-II:C) | 8.85 | 59% |
| CC[C@H](C)[C@@H]1NC(=O)[C@H](Cc2ccccc2)NC(=O)[C@@H](N)CSSC[C@@H](C(=O)N2CCC[C@H]2C(=O)N[C@@H](CCNC(=O)[C@@H](N)CCCCNC(=O)CC[C@H](NC(=O)[C@H](CCCNC(=N)N)NC(=O)[C@@H]2CCCN2C(=O)[C@H](CCCNC(N)=O)NC(=O)[C@H](CC(N)=O)NC(=O)[C@H](CCC(N)=O)NC(=O)[C@H](Cc2ccccc2)NC(=O)[C@@H](Cc2ccc(OC)cc2)NC(=O)Cc2ccccc2)C(N)=O)C(=O)NCC(N)=O)NC(=O)[C@H](CC(N)=O)NC(=O)[C@H](CCC(N)=O)NC1=O [Compound 44] (I: H-CFIQNCP[Dab]G-NH2 / II: PhAc-[dY](Me)FQN[Cit]PR[isoGln][εLys]; disulfide I:1-I:6; amide I:8-II:C) | 8.70 | 40% |
| CC[C@H](C)[C@@H]1NC(=O)[C@H](Cc2ccccc2)NC(=O)[C@@H](N)CSSC[C@@H](C(=O)N2CCC[C@H]2C(=O)N[C@@H](CCCNCCCCCNC(=O)CC[C@H](NC(=O)[C@H](CCCNC(=N)N)NC(=O)[C@@H]2CCCN2C(=O)[C@H](CCCNC(N)=O)NC(=O)[C@H](CC(N)=O)NC(=O)[C@H](CCC(N)=O)NC(=O)[C@H](Cc2ccc(Cl)cc2)NC(=O)[C@@H](Cc2ccc(OC)cc2)NC(=O)Cc2ccccc2)C(N)=O)C(=O)NCC(N)=O)NC(=O)[C@H](CC(N)=O)NC(=O)[C@H](CCC(N)=O)NC1=O [Compound 45] | 9.10 | 72% |
| CC[C@H](C)[C@@H]1NC(=O)[C@H](Cc2ccccc2)NC(=O)[C@@H](N)CSSC[C@@H](C(=O)N2CCC[C@H]2C(=O)N[C@@H](CCCNCCCCCNC(=O)CC[C@H](NC(=O)[C@H](CCCNC(=N)N)NC(=O)[C@@H]2CCCN2C(=O)[C@H](CCCNC(N)=O)NC(=O)[C@H](CC(N)=O)NC(=O)[C@H](CCC(N)=O)NC(=O)[C@H](CC(C)(C)C)NC(=O)[C@@H](Cc2ccc(OC)cc2)NC(=O)Cc2ccccc2)C(N)=O)C(=O)NCC(N)=O)NC(=O)[C@H](CC(N)=O)NC(=O)[C@H](CCC(N)=O)NC1=O [Compound 46] | 8.85 | 62% |
| CC[C@H](C)[C@@H]1NC(=O)[C@H](Cc2ccccc2)NC(=O)[C@@H](N)CSSC[C@@H](C(=O)N2CCC[C@H]2C(=O)N[C@@H](CCNC(=O)[C@@H](N)CCCCNC(=O)CC[C@H](NC(=O)[C@H](CCCNC(=N)N)NC(=O)[C@@H]2CCCN2C(=O)[C@H](CCCNC(N)=O)NC(=O)[C@H](CC(N)=O)NC(=O)[C@H](CCC(N)=O)NC(=O)[C@H](Cc2ccccc2)NC(=O)[C@@H](Cc2ccc(OC)cc2)NC(=O)Cc2ccccc2)C(N)=O)C(=O)NCC(N)=O)NC(=O)[C@H](CC(N)=O)NC(=O)[C@H](CCCC(N)=O)NC1=O [Compound 47] (I: H-CFI[Aad](NH2)NCP[Dab]G-NH2 / II: PhAc-[dY](Me)FQN[Cit]PR[isoGln][εLys]; disulfide I:1-I:6 (inferred); amide I:8-II:C (inferred)) | 8.74 | 45% |
| CC[C@H](C)[C@@H]1NC(=O)[C@H](Cc2ccccc2)NC(=O)[C@@H](O)CSSC[C@@H](C(=O)N2CCC[C@H]2C(=O)N[C@@H](CCNC(=O)[C@@H](N)CCCCNC(=O)CC[C@H](NC(=O)[C@H](CCCNC(=N)N)NC(=O)[C@@H]2CCCN2C(=O)[C@H](CCCNC(N)=O)NC(=O)[C@H](CC(N)=O)NC(=O)[C@H](CCC(N)=O)NC(=O)[C@H](Cc2ccccc2)NC(=O)[C@@H](Cc2ccc(OC)cc2)NC(=O)Cc2ccccc2)C(N)=O)C(=O)NCC(N)=O)NC(=O)[C@H](CC(N)=O)NC(=O)[C@H](CCCC(N)=O)NC1=O [Compound 48] | 8.85 | 67% |
| CC[C@H](C)[C@@H]1NC(=O)[C@H](Cc2ccccc2)NC(=O)[C@@H](N)CSSC[C@@H](C(=O)N2CCC[C@H]2C(=O)N[C@@H](CCNC(=O)[C@H](N)CCCCNC(=O)CC[C@H](NC(=O)[C@H](CCCNC(=N)N)NC(=O)[C@@H]2CCCN2C(=O)[C@H](CCCNC(N)=O)NC(=O)[C@H](CC(N)=O)NC(=O)[C@H](CCC(N)=O)NC(=O)[C@H](Cc2ccccc2)NC(=O)[C@@H](Cc2ccc(OC)cc2)NC(=O)Cc2ccccc2)C(N)=O)C(=O)NCC(N)=O)NC(=O)[C@H](CC(N)=O)NC(=O)[C@H](CCC(N)=O)NC1=O [Compound 49] (I: H-CFIQNCP[Dab]G-NH2 / II: PhAc-[dY](Me)FQN[Cit]PR[isoGln][d(εLys)]; disulfide I:1-I:6; amide I:8-II:C) | 9.12 | 55% |
| CC[C@H](C)[C@@H]1NC(=O)[C@H](Cc2ccccc2)NC(=O)[C@@H](N)CSSC[C@@H](C(=O)N2CCC[C@H]2C(=O)N[C@@H](CCNC(=O)[C@@H](N)CCCCNC(=O)CC[C@H](NC(=O)[C@H](CCCNC(=N)N)NC(=O)[C@@H]2CCCN2C(=O)[C@H](C)NC(=O)[C@H](CC(N)=O)NC(=O)[C@H](CCC(N)=O)NC(=O)[C@H](Cc2ccccc2)NC(=O)[C@@H](Cc2ccc(OC)cc2)NC(=O)Cc2ccccc2)C(N)=O)C(=O)NCC(N)=O)NC(=O)[C@H](CC(N)=O)NC(=O)[C@H](CCCC(N)=O)NC1=O [Compound 50] (I: H-CFI[Aad](NH2)NCP[Dab]G-NH2 / II: PhAc-[dY](Me)FQNAPR[isoGln][εLys]; disulfide I:1-I:6; amide I:8-II:C) | 9.05 | 40% |
| CC[C@H](C)[C@@H]1NC(=O)[C@H](Cc2ccccc2)NC(=O)[C@@H](N)CSSC[C@@H](C(=O)N2CCC[C@H]2C(=O)N[C@@H](CCNC(=O)[C@H](N)CCCCNC(=O)CC[C@H](NC(=O)[C@H](CCCNC(=N)N)NC(=O)[C@@H]2CCCN2C(=O)[C@H](C)NC(=O)[C@H](CC(N)=O)NC(=O)[C@H](CCC(N)=O)NC(=O)[C@H](Cc2ccccc2)NC(=O)[C@@H](Cc2ccc(OC)cc2)NC(=O)Cc2ccccc2)C(N)=O)C(=O)NCC(N)=O)NC(=O)[C@H](CC(N)=O)NC(=O)[C@H](CCCC(N)=O)NC1=O [Compound 51] (I: H-CFI[Aad](NH2)NCP[Dab]G-NH2 / II: PhAc-[dY](Me)FQNAPR[isoGln][d(εLys)]; disulfide I:1-I:6; amide I:8-II:C) | 8.85 | 43% |
| CC[C@H](C)[C@@H]1NC(=O)[C@H](Cc2ccccc2)NC(=O)[C@@H](N)CSSC[C@@H](C(=O)N2CCC[C@H]2C(=O)N[C@@H](CCNC(=O)[C@H](N)CCCCNC(=O)CC[C@H](NC(=O)[C@H](CCCNC(=N)N)NC(=O)[C@@H]2CCCN2C(=O)[C@H](CCCNC(N)=O)NC(=O)[C@H](CC(N)=O)NC(=O)[C@H](CCC(N)=O)NC(=O)[C@H](Cc2ccccc2)NC(=O)[C@@H](Cc2ccc(OC)cc2)NC(=O)Cc2ccccc2)C(N)=O)C(=O)NCC(N)=O)NC(=O)[C@H](CC(N)=O)NC(=O)[C@H](CCCC(N)=O)NC1=O [Compound 52] (I: H-CFI[Aad](NH2)NCP[Dab]G-NH2 / II: PhAc-[dY](Me)FQN[Cit]PR[isoGln][d(εLys)]; disulfide I:1-I:6; amide I:8-II:C) | 8.82 | 47% |
| CC[C@H](C)[C@@H]1NC(=O)[C@H](Cc2ccccc2)NC(=O)[C@@H](N)CSSC[C@@H](C(=O)N2CCC[C@H]2C(=O)N[C@@H](CCNC(=O)[C@@H](N)CCCCNC(=O)CC[C@@H](NC(=O)[C@H](CCCNC(=N)N)NC(=O)[C@@H]2CCCN2C(=O)[C@H](C)NC(=O)[C@H](CC(N)=O)NC(=O)[C@H](CCC(N)=O)NC(=O)[C@H](Cc2ccccc2)NC(=O)[C@@H](Cc2ccc(OC)cc2)NC(=O)Cc2ccccc2)C(N)=O)C(=O)NCC(N)=O)NC(=O)[C@H](CC(N)=O)NC(=O)[C@H](CCCC(N)=O)NC1=O [Compound 53] (I: H-CFI[Aad](NH2)NCP[Dab]G-NH2 / II: PhAc-[dY](Me)FQNAPR[d(isoGln)][εLys]; disulfide I:1-I:6; amide I:8-II:C) | 8.77 | 43% |
| CC[C@H](C)[C@@H]1NC(=O)[C@H](Cc2ccccc2)NC(=O)[C@@H](N)CSSC[C@@H](C(=O)N2CCC[C@H]2C(=O)N[C@@H](CCNC(=O)[C@@H](N)CCCCNC(=O)CC[C@@H](NC(=O)[C@H](CCCNC(=N)N)NC(=O)[C@@H]2CCCN2C(=O)[C@H](C)NC(=O)[C@H](CC(N)=O)NC(=O)[C@H](CCC(N)=O)NC(=O)[C@H](Cc2ccccc2)NC(=O)[C@@H](Cc2ccc(OC)cc2)NC(=O)Cc2ccccc2)C(N)=O)C(=O)NCC(N)=O)NC(=O)[C@H](CC(N)=O)NC(=O)[C@H](CCC(N)=O)NC1=O [Compound 54] (I: H-CFIQNCP[Dab]G-NH2 / II: PhAc-[dY](Me)FQNAPR[d(isoGln)][εLys]; disulfide I:1-I:6; amide I:8-II:C) | 8.85 | 51% |
| CC[C@H](C)[C@@H]1NC(=O)[C@H](Cc2ccccc2)NC(=O)[C@@H](N)CSSC[C@@H](C(=O)N2CCC[C@H]2C(=O)N[C@@H](CCNC(=O)[C@H](N)CCCCNC(=O)CC[C@@H](NC(=O)[C@H](CCCNC(=N)N)NC(=O)[C@@H]2CCCN2C(=O)[C@H](CCCNC(N)=O)NC(=O)[C@H](CC(N)=O)NC(=O)[C@H](CCC(N)=O)NC(=O)[C@H](Cc2ccccc2)NC(=O)[C@@H](Cc2ccc(OC)cc2)NC(=O)Cc2ccccc2)C(N)=O)C(=O)NCC(N)=O)NC(=O)[C@H](CC(N)=O)NC(=O)[C@H](CCC(N)=O)NC1=O [Compound 55] (I: H-CFIQNCP[Dab]G-NH2 / II: PhAc-[dY](Me)FQN[Cit]PR[d(isoGln)][d(εLys)]; disulfide I:1-I:6; amide I:8-II:C) |  | 56% |
